The text below walks through data of patent US12053470B2, “Pharmaceutical combination comprising an ALK inhibitor and a SHP2 inhibitor” (Novartis AG, priority 2017, dated 2024).

The target in assay [1] is SHP2 (Homo sapiens (Human), UniProt Q06124). The assay is described as follows: SHP2 allosteric inhibition assay (DiFMUP prompt fluorescence). It counts as biochemical.
The test system of assay [2] is Ceritinib resistant MGH049 cells. Nature of the assay: Cell colony formation assay with ceritinib resistant MGH049 cells.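 Note: tested compounds are SHP2 inhibitors given alone, colonies fixed and crystal violet stained, DMSO reference taken as the mean of six readings.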 Format: cell-based, human. As to conditions: Homo sapiens, 168 h; compound of Table 1 (3 μM) alone, 7 days; normalized to DMSO without compound = 100; read-out: Normalized Crystal Violet abs. (590 nm) DMSO.

Sequence of SHP2 (Q06124 whole entry): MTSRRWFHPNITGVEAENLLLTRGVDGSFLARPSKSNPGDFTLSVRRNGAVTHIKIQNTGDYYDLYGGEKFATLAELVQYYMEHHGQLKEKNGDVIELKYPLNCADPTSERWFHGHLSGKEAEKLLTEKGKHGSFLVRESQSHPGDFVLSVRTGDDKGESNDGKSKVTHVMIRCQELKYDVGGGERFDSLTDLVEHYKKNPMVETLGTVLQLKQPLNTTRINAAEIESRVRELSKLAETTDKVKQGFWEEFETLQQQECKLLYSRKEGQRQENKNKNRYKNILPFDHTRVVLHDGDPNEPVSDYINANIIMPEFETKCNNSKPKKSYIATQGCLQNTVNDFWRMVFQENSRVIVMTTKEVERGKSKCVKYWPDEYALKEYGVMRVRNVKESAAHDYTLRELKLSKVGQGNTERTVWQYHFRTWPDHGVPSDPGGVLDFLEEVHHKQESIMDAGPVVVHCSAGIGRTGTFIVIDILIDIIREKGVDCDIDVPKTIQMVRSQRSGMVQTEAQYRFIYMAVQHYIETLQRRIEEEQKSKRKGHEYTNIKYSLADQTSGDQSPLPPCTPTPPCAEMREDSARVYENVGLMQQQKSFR

On to `CC1(N)CCN(c2cnc(Sc3cccc(NC(=O)C4=C(O)CN(c5ccccc5)C4=O)c3Cl)c(N)n2)CC1` [compound 46, N-(3-((3-amino-5-(4-amino-4-methylpiperidin-1-yl)pyrazin-2-yl)thio)-2-chlorophenyl)-4-hydroxy-2-oxo-1-phenyl-2,5-dihydro-1H-pyrrole-3-carboxamide], for which the concentration for half-maximal inhibition (IC50) in assay [1] was 4 nM. Moreover, the activity at 3 µM in assay [2] was 70.9%.
For the molecule `C[C@@H]1OCC2(CCN(c3cnc(Sc4cc(N)nc(Cl)c4Cl)cn3)CC2)[C@@H]1N` [compound 21, (3S,4S)-8-(5-((6-amino-2,3-dichloropyridin-4-yl)thio)pyrazin-2-yl)-3-methyl-2-oxa-8-azaspiro[4.5]decan-4-amine], the 50% inhibitory concentration (IC50) in assay [1] is 14 nM. Further, the activity at 3 µM in assay [2] worked out at 48.2%.
On to `Nc1nc(N2CCC3(CC2)COC[C@H]3N)cnc1Sc1cccnc1C(F)(F)F` [compound 10, (S)-8-(6-amino-5-((2-(trifluoromethyl)pyridin-3-yl)thio)pyrazin-2-yl)-2-oxa-8-azaspiro[4.5]decan-4-amine], for which inhibition in assay [1] was half-maximal at 25 nM (IC50).
`C[C@@H]1OCC2(CCN(c3cnc(-c4cccc(Cl)c4Cl)c(N)n3)CC2)[C@@H]1N` [compound 7, (3S,4S)-8-(6-amino-5-(2,3-dichlorophenyl)pyrazin-2-yl)-3-methyl-2-oxa-8-azaspiro[4.5]decan-4-amine] returned an IC50 in assay [1] of 39 nM. Further, the activity at 3 µM in assay [2] was found to be 98.2%.
Regarding `CC1CCC2(CCN(c3cnc(Sc4ccnc(N)c4Cl)cn3)CC2)[C@@H]1N` (stereo partly drawn) [compound 20, (1R)-8-(5-((2-amino-3-chloropyridin-4-yl)thio)pyrazin-2-yl)-2-methyl-8-azaspiro[4.5]decan-1-amine], in assay [1], the concentration for half-maximal inhibition (IC50) was determined as 6 nM. Also, the activity at 3 µM in assay [2] worked out at 54.7%.
In turn, `C[C@@H]1OCC2(CCN(c3cnc(Sc4ccnc(N)c4Cl)cn3)CC2)[C@@H]1N` [compound 22, (3S,4S)-8-(5-((2-amino-3-chloropyridin-4-yl)thio)pyrazin-2-yl)-3-methyl-2-oxa-8-azaspiro[4.5]decan-4-amine] showed an IC50 in assay [1] of 8 nM. In addition, in assay [2], the activity at 3 µM was 19.5%.
The like results for `C[C@H]1C[C@@H](N)C2(CCN(c3cnc(Sc4ccnc(N)c4Cl)cn3)CC2)C1` [compound 19, (1R,3R)-8-(5-((2-amino-3-chloropyridin-4-yl)thio)pyrazin-2-yl)-3-methyl-8-azaspiro[4.5]decan-1-amine] were, in that order, 6 nM and 96.1%.
The matching figures for `CC1CCC2(CCN(c3cnc(Sc4ccnc(N)c4Cl)c(N)n3)CC2)[C@@H]1N` (stereo partly drawn) [compound 15, (1R)-8-(6-amino-5-((2-amino-3-chloropyridin-4-yl)thio)pyrazin-2-yl)-2-methyl-8-azaspiro[4.5]decan-1-amine]: 9 nM and 31%.
Regarding `Nc1nc(N2CCC3(CC2)C[C@H](O)C[C@H]3N)cnc1Sc1ccnc(Cl)c1Cl` [compound 13, (2S,4R)-4-amino-8-(6-amino-5-((2,3-dichloropyridin-4-yl)thio)pyrazin-2-yl)-8-azaspiro[4.5]decan-2-ol], in assay [2], the activity at 3 µM turned out to be 42.8%.
Same read-out and setting: as for `CN1C(=O)C(C(=O)Nc2cccc(Sc3ncc(N4CCC(C)(N)CC4)nc3N)c2Cl)=C(O)C1Cc1ccccc1` (stereo not drawn) [compound 54, N-(3-((3-amino-5-(4-amino-4-methylpiperidin-1-yl)pyrazin-2-yl)thio)-2-chlorophenyl)-5-benzyl-4-hydroxy-1-methyl-2-oxo-2,5-dihydro-1H-pyrrole-3-carboxamide], the figure is 132%; as for `C[C@H]1C[C@@H](N)C2(CCN(c3cnc(Sc4ccnc(N)c4Cl)c(N)n3)CC2)C1` [compound 12, (1R,3R)-8-(6-amino-5-((2-amino-3-chloropyridin-4-yl)thio)pyrazin-2-yl)-3-methyl-8-azaspiro[4.5]decan-1-amine], 30.1%.

By IC50 is commonly meant the concentration that gives 50% inhibition. Read a high IC50 as weaker potency in that assay.
